Assay results: US12503473B2, “Triazolopyrimidine compounds and their use in treating cancer” (Dizal (Jiangsu) Pharmaceutical Co., Ltd., priority 2018, dated 2025)

Columns and labels:
MCT4 [1] = target: T1, MCT4 (Homo sapiens, UniProt O15427); test: cell-based
T1 sequence (O15427 1-465): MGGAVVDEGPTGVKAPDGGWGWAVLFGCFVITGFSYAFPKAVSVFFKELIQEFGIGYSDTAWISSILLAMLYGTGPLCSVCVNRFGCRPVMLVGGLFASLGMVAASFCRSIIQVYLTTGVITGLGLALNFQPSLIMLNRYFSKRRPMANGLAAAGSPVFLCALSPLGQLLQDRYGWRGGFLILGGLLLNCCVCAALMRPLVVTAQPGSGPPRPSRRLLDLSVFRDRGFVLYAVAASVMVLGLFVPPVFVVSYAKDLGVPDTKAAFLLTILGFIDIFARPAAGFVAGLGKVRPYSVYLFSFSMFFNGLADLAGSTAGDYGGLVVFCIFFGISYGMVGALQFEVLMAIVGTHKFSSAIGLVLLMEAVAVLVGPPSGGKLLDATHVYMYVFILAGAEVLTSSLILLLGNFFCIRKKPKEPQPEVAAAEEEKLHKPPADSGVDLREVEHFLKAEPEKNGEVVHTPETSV
Description: Cells were loaded with the pH sensitive dye BCECFAM(Invitrogen #B11150) before being washed to remove excess dye and seeded into the assay plates—directly onto the test compound—at a density of 15,000 cells/well (NCI—H358) or 30,000 cells/well (K562), in 30 μl HBSS with 1 mM [final] […] Assay plates were lidded and spun in a plate centrifuge at 170 g for 1 minute. Plates were then wrapped in foil and incubated in the dark for 1 hour at room temperature.
Following incubation with test compound, 10 μl of 25 mM Sodium-L-Lactate (Sigma #L7022) made up in HBSS with 1 mM [final] […] This addition was performed directly on the FLIPR Tetra platform (Molecular Devices) as part of a real-time kinetic read protocol. […] A percentage change from base-line was calculated for each test well and values normalised to control wells—treated with either DMSO (maximum assay signal) or chemistry related to that described in this patent (minimum assay signal)—before fitting concentration response curves to determine an IC50 value.

MCT4 [2] = target: T1, MCT4; test: Assay (a): lactate efflux from SK-Br-3 cells (lactate in media, 4 h); assay type: cell-based; parameters: a natively glycolytic human breast adenocarcinoma line predominantly expressing MCT4; host or cells: SK-Br-3; conditions: mean of at least three repeats (Example 32, marked *, two repeats), read-out: MCT4 lactate efflux pIC50 (SKBR3) (converted)
Description: Assay plates were lidded and incubated for 4 hours at 37° C. and 5% CO2.

IC50 (MCT4 [1]) [nM]	IC50 (MCT4 [2]) [nM]	SMILES
10	0.2	Cc1nc2nc(C)c(C[C@@H]3CCN(c4cnc(-c5ccc(CN6CCN(S(C)(=O)=O)CC6)cc5)cn4)C3)c(C)n2n1 [Example 52, 2,5,7-trimethyl-6-({(3R)-1-[5-(4-{[4-(methylsulfonyl)piperazin-1-yl]methyl}phenyl)pyrazin-2-yl]pyrrolidin-3-yl}methyl)[1,2,4]triazolo[1,5-a]pyrimidine]
7.94	0.316	Cc1nc2nc(C)c(C[C@@H]3CCN(c4cnc(-c5ccc(CN6CCOCC6)nc5)nc4)C3)c(C)n2n1 [Example 11, (R)-4-((5-(5-(3-((2,5,7-trimethyl-[1,2,4]triazolo[1,5-a]pyrimidin-6-yl)methyl)pyrrolidin-1-yl)pyrimidin-2-yl)pyridin-2-yl)methyl)morpholine]
15.8	3.98	Cc1nc2nc(C)c(O[C@@H]3CCN(c4cnc(-c5ccc(CN6CCN(C)CC6)cc5)cn4)C3)c(C)n2n1 [Example 77, (R)-2,5,7-trimethyl-6-((1-(5-(4-((4-methylpiperazin-1-yl)methyl)phenyl)pyrazin-2-yl)pyrrolidin-3-yl)oxy)-[1,2,4]triazolo[1,5-a]pyrimidine]
7.94	0.631	Cc1nc2nc(C)c(C[C@@H]3CCN(c4ncc(-c5ccc(CN6CCOCC6)cc5)cn4)C3)c(C)n2n1 [Example 6, (R)-4-(4-(2-(3-((2,5,7-trimethyl-[1,2,4]triazolo[1,5-a]pyrimidin-6-yl)methyl)pyrrolidin-1-yl)pyrimidin-5-yl)benzyl)morpholine]
7.94	0.2	Cc1nc2nc(C)c(C[C@@H]3CCN(c4cnc(-c5ccc(CN6CCOCC6)cc5)nc4)C3)c(C)n2n1 [Example 19, (R)-4-(4-(5-(3-((2,5,7-trimethyl-[1,2,4]triazolo[1,5-a]pyrimidin-6-yl)methyl)pyrrolidin-1-yl)pyrimidin-2-yl)benzyl)morpholine]
6.31	2.51	Cc1nc2nc(C)c(O[C@@H]3CCN(c4cnc(-c5ccc(CN6CCOCC6)cc5)cn4)C3)c(C)n2n1 [Example 78, (R)-4-(4-(5-(3-((2,5,7-trimethyl-[1,2,4]triazolo[1,5-a]pyrimidin-6-yl)oxy)pyrrolidin-1-yl)pyrazin-2-yl)benzyl)morpholine]
6.31	1	Cc1nc2nc(C)c(C[C@@H]3CCN(c4ccc(-c5ccc(CN6CCOCC6)cc5)nn4)C3)c(C)n2n1 [Example 61, (R)-4-(4-(6-(3-((2,5,7-trimethyl-[1,2,4]triazolo[1,5-a]pyrimidin-6-yl)methyl)pyrrolidin-1-yl)pyridazin-3-yl)benzyl)morpholine]
6.31	0.398	Cc1nc2nc(C)c(C[C@@H]3CCN(c4cnc(-c5ccc(CN6CCCCC6)cc5)cn4)C3)c(C)n2n1 [Example 37, 2,5,7-trimethyl-6-[[(3R)-1-[5-[4-(1-piperidylmethyl)phenyl]pyrazin-2-yl]pyrrolidin-3-yl]methyl]-[1,2,4]triazolo[1,5-a]pyrimidine]
20	0.631	COc1cc(CN2CCN(C)CC2)ccc1-c1cnc(N2CC[C@@H](Cc3c(C)nc4nc(C)nn4c3C)C2)cn1 [Example 43, (R)-6-((1-(5-(2-methoxy-4-((4-methylpiperazin-1-yl)methyl)phenyl)pyrazin-2-yl)pyrrolidin-3-yl)methyl)-2,5,7-trimethyl-[1,2,4]triazolo[1,5-a]pyrimidine]
20	1.26	Cc1nc2nc(C)c(C[C@@H]3CCN(c4ccc(-c5cnc(CN6CCN(C)CC6)cn5)cc4)C3)c(C)n2n1 [Example 21, (R)-2,5,7-trimethyl-6-((1-(4-(5-((4-methylpiperazin-1-yl)methyl)pyrazin-2-yl)phenyl)pyrrolidin-3-yl)methyl)-[1,2,4]triazolo[1,5-a]pyrimidine]
12.6	0.501	Cc1nc2nc(C)c(C[C@@H]3CCN(c4ccc(-c5ccc(CN6CCN(C)CC6)cc5)cn4)C3)c(C)n2n1 [Example 5, (R)-2,5,7-trimethyl-6-((1-(5-(4-((4-methylpiperazin-1-yl)methyl)phenyl)pyridin-2-yl)pyrrolidin-3-yl)methyl)-[1,2,4]triazolo[1,5-a]pyrimidine]

The next lines start with the compound.

SMILES	IC50 (MCT4 [1]) [nM]	IC50 (MCT4 [2]) [nM]
Cc1nc2nc(C)c(C[C@@H]3CCN(c4cnc(-c5ccc(CN6CCCC6)nc5)cn4)C3)c(C)n2n1 [Example 82, (R)-2,5,7-trimethyl-6-((1-(5-(6-(pyrrolidin-1-ylmethyl)pyridin-3-yl)pyrazin-2-yl)pyrrolidin-3-yl)methyl)-[1,2,4]triazolo[1,5-a]pyrimidine]	12.6	2.51
Cc1nc2nc(C)c(C[C@@H]3CCN(c4cnc(-c5ccc(CN6C[C@@H](C)N[C@@H](C)C6)cc5)cn4)C3)c(C)n2n1 [Example 40, 6-(((R)-1-(5-(4-(((3R,5S)-3,5-dimethylpiperazin-1-yl)methyl)phenyl)pyrazin-2-yl)pyrrolidin-3-yl)methyl)-2,5,7-trimethyl-[1,2,4]triazolo[1,5-a]pyrimidine]	63.1	1.26
Cc1nc2nc(C)c(C[C@@H]3CCN(c4ccc(-c5ccc(CN6CCN(C)CC6)cn5)cc4)C3)c(C)n2n1 [Example 27, (R)-2,5,7-trimethyl-6-((1-(4-(5-((4-methylpiperazin-1-yl)methyl)pyridin-2-yl)phenyl)pyrrolidin-3-yl)methyl)-[1,2,4]triazolo[1,5-a]pyrimidine]	20	0.631
Cc1nc2nc(C)c(C[C@@H]3CCN(c4cnc(-c5ccc(CN6CCN(C)CC6)cc5)nc4)C3)c(C)n2n1 [Example 20, (R)-2,5,7-trimethyl-6-((1-(2-(4-((4-methylpiperazin-1-yl)methyl)phenyl)pyrimidin-5-yl)pyrrolidin-3-yl)methyl)-[1,2,4]triazolo[1,5-a]pyrimidine]	39.8	0.501
Cc1nc2nc(C)c(C[C@@H]3CCN(c4cnc(-c5ccc(CN6CCN(CCO)CC6)cc5)nc4)C3)c(C)n2n1 [Example 16, (R)-2-(4-(4-(5-(3-((2,5,7-trimethyl-[1,2,4]triazolo[1,5-a]pyrimidin-6-yl)methyl)pyrrolidin-1-yl)pyrimidin-2-yl)benzyl)piperazin-1-yl)ethanol]	31.6	0.501
Cc1nc2nc(C)c(C[C@@H]3CCN(c4cnc(-c5ccc(CN6CCN(C)CC6)cc5)c(C)n4)C3)c(C)n2n1 [Example 54, (R)-2,5,7-trimethyl-6-((1-(6-methyl-5-(4-((4-methylpiperazin-1-yl)methyl)phenyl)pyrazin-2-yl)pyrrolidin-3-yl)methyl)-[1,2,4]triazolo[1,5-a]pyrimidine]	7.94	0.398
Cc1nc2nc(C)c(C[C@@H]3CCN(c4cnc(-c5ccc(CN6CCOCC6)cn5)c(C)n4)C3)c(C)n2n1 [Example 47, (R)-4-((6-(3-methyl-5-(3-((2,5,7-trimethyl-[1,2,4]triazolo[1,5-a]pyrimidin-6-yl)methyl)pyrrolidin-1-yl)pyrazin-2-yl)pyridin-3-yl)methyl)morpholine]	10	2
Cc1nc2nc(C)c(C[C@@H]3CCN(c4ccc(-c5ccc(CN6CCN(C)CC6)nc5)cn4)C3)c(C)n2n1 [Example 4, (R)-2,5,7-trimethyl-6-((1-(6′-((4-methylpiperazin-1-yl)methyl)-[3,3′-bipyridin]-6-yl)pyrrolidin-3-yl)methyl)-[1,2,4]triazolo[1,5-a]pyrimidine]	39.8	0.631
Cc1nc2nc(C)c(C[C@@H]3CCN(c4cnc(-c5ccc(CN6CCN(C)CC6)nc5)cn4)C3)c(C)n2n1 [Example 57, (R)-2,5,7-trimethyl-6-((1-(5-(6-((4-methylpiperazin-1-yl)methyl)pyridin-3-yl)pyrazin-2-yl)pyrrolidin-3-yl)methyl)-[1,2,4]triazolo[1,5-a]pyrimidine]	126	3.98
Cc1nc2nc(C)c(C[C@@H]3CCN(c4cnc(-c5ccc(CN6CCN(CC(=O)N(C)C)CC6)cc5)cn4)C3)c(C)n2n1 [Example 53, (R)—N,N-dimethyl-2-(4-(4-(5-(3-((2,5,7-trimethyl-[1,2,4]triazolo[1,5-a]pyrimidin-6-yl)methyl)pyrrolidin-1-yl)pyrazin-2-yl)benzyl)piperazin-1-yl)acetamide]	25.1	0.631
Cc1nc2nc(C)c(C[C@@H]3CCN(c4cnc(-c5ccc(CN6CCN(C)CC6)c(C)c5)cn4)C3)c(C)n2n1 [Example 56, (R)-2,5,7-trimethyl-6-((1-(5-(3-methyl-4-((4-methylpiperazin-1-yl)methyl)phenyl)pyrazin-2-yl)pyrrolidin-3-yl)methyl)-[1,2,4]triazolo[1,5-a]pyrimidine]	20	0.631
Cc1nc2nc(C)c(C[C@@H]3CCN(c4cnc(-c5ccc(CN6CCOCC6)nc5)cn4)C3)c(C)n2n1 [Example 49, (R)-4-((5-(5-(3-((2,5,7-trimethyl-[1,2,4]triazolo[1,5-a]pyrimidin-6-yl)methyl)pyrrolidin-1-yl)pyrazin-2-yl)pyridin-2-yl)methyl)morpholine]	7.94	0.631
